The values that follow come from patent US4758597A, “Carenadiol and derivatives” (University Patents, Inc., priority 1987, dated 1988).

Series [1] relates to genetically epilepsy prone rats. Nature of the series: Audiogenic seizure (AGS) test, anticonvulsant activity. It is filed as in vivo, rat. To be noted: for ED50: Rattus norvegicus, 0.25 h, iv, rats, tested 15 minutes after injection, 95% confidence limits printed in parentheses on the next line, read-out: AGS ED50 (median effective anticonvulsant dose). As for the experimental part:
(§1) With regard to the potential use of this family of compounds in the treatment of epilepsy, (+)-Carenadiol was evaluated in the audiogenic seizure (AGS-susceptible) rat model of eilepsy to assess its anticonvulsant activity, and the rat rotorod (ROT) paadigm was used to assess differential neurotoxicity (i.e., reflecting mainly sedation and/or incoordination), of this family of compounds.
(§2) For AGS tests, male and female, 150-225 gm, genetically epilepsy prone rats were used. For ROT tests, male and female, 150-225 gm. rats were used. CBD analogs (suspended in a vehicle of 10% polysorbate 80 and 90% distilled water) were injected intravenously and rats were tested 15 minutes later (a peak-effect time for both tests). In the AGS test, responses to sound were recorded as the presence or absence of seizure (i.e., generalized clonus or clonus and generalized flexion). In the ROT test, effects were measured as the ability or inability (i.e., neurotoxicity) of trained rats to remain on a revolving drum (rotorod) for 60 seconds.
(§3) Separate groups of 10-15 rats were used for each doses of drug tested and, typically, 3-6 doses of each analog were used for each AGS and ROT test. For appropriate dose-response data, median effective anticonvulsant (ED50) and neurotoxic (TD50) doses and regression line parameters were calculated by computer-assisted probit analysis. Subsequent calculations of 95% confidence limits (CL) and comparisons between slopes and median doses (i.e., ED50 and TD50 potency comparisons) were carried out using the method of Litchfield and Wilcoxon [J. Pharmacol Exp Ther 96:99-133(1949)].Protective indexes (PI =ROT-TD50/AGS-ED50) also were calculated.

Test in series [2]: as above
It is filed as in vivo, rat. To be noted: rat, in vivo; ratio of ROT TD50 to AGS ED50, iv, rats; read-out: PI (protective index = ROT-TD50/AGS-ED50). Here is the method:
as §1, §2, §3

Series [3] in a line: Rat rotorod (ROT) test, differential neurotoxicity. It is filed as in vivo. Conditions: iv, rats, tested 15 minutes after injection, 95% confidence limits printed in parentheses on the next line, read-out: ROT TD50 (median neurotoxic dose). Here is the method: as §1, §2, §3
The next series concerns laboratory animals. To be noted: cited from earlier work.
The conditions of series [4]: in man; cited from earlier work.

Structures are written as SMILES.

One may read the ED50 as the midpoint of the dose-response relation. By TD50 is commonly meant the dose at which the toxic effect under study appears in half of the subjects. As for `NC(=O)N1c2ccccc2C=Cc2ccccc21` [Carbamazepine], the ED50 in series [1] came to 12.8 mg/kg. In addition, the selectivity ratio at 0.25 h in series [2] came out at 2.7. For the same molecule, the TD50 at 0.25 h in series [3] came out at 33.9 mg/kg.

On to `CCCCCCC(C)(C)c1cc(O)c(C2C=C(C)CC3C2C3(C)C)c(O)c1` (single isomer, unassigned; (+)) [(+)-5b], for which the median effective dose (ED50) in series [1] was 3.4 mg/kg. Further, the selectivity ratio at 0.25 h in series [2] amounted to 1.1. The TD50 at 0.25 h in series [3] is 3.7 mg/kg.

On to `O=C1NC(=O)C(c2ccccc2)(c2ccccc2)N1` [Phenytoin], for which the 50% effective dose (ED50) in series [1] amounted to 14.7 mg/kg. Further, the selectivity ratio at 0.25 h in series [2] is 1.6. Moreover, the TD50 at 0.25 h in series [3] worked out at 23.9 mg/kg.

Turning to `C=C(C)[C@@H]1CCC(C)=C[C@H]1c1c(O)cc(CCCCC)cc1O` [(-)-CBD, (-)-Cannabidiol], the “activity in models that predict cannabimimetic activity” value in the series on laboratory animals is “inactive”. In addition, in series [4], the antidystonic activity entry is reported as “possibly antidystonic activity”; the antiepileptic efficacy entry is listed as “antiepileptic efficacy”; the cannabimimetic activity entry is “no cannabimimetic activity”; the side effects result is “no recognized and undesired side effects”.

In the case of `CCC1(c2ccccc2)C(=O)NC(=O)NC1=O` [Phenobarbital], the ED50 in series [1] is 10.8 mg/kg. For the same molecule, in series [2], the selectivity ratio at 0.25 h was 2.7. Further, the TD50 at 0.25 h in series [3] was 28.9 mg/kg.

As for `CCCCCc1cc(O)c(C2C=C(C)CC3C2C3(C)C)c(O)c1` (single isomer, unassigned; (+)) [(+)-5a], in series [1], the ED50 amounted to 18.1 mg/kg. The “activity among the compounds synthesized and tested” value in series [1] (comparison in words) was “the most active”. Moreover, the selectivity ratio at 0.25 h in series [2] amounted to 5.5. The TD50 at 0.25 h in series [3] turned out to be 99.8 mg/kg.
